Source: PubChem BioAssay (NCI)
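Grown in 96-well plates, cells were treated for 48 hours with each compound at five concentrations. Insufficient inhibition: endpoint recorded as highest concentration tested. GI50 is the concentration that inhibits growth by half. TGI: concentration producing complete growth inhibition.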

Experiments:
Assay in all cases: growth of human tumour cells (NCI), 48 h
RPMI-8226 leukemia = test system: RPMI-8226 leukemia
KM12 colon = test system: KM12 colon
HS 578T breast = test system: HS 578T breast
SF-268 CNS = test system: SF-268 CNS
OVCAR-8 ovarian = test system: OVCAR-8 ovarian
SK-OV-3 ovarian = test system: SK-OV-3 ovarian
SN12C renal = test system: SN12C renal
NCI-H226 lung = test system: NCI-H226 lung
SNB-19 CNS = test system: SNB-19 CNS
MDA-MB-231 breast = test system: MDA-MB-231 breast
HCT-15 colon = test system: HCT-15 colon
U251 CNS = test system: U251 CNS
PC-3 prostate = test system: PC-3 prostate
786-0 renal = test system: 786-0 renal
IGROV1 ovarian = test system: IGROV1 ovarian
HOP-62 NSCLC = test system: HOP-62 NSCLC
UACC-257 melanoma = test system: UACC-257 melanoma
OVCAR-5 ovarian = test system: OVCAR-5 ovarian
CCRF-CEM leukemia = test system: CCRF-CEM leukemia
COLO 205 colon = test system: COLO 205 colon
SK-MEL-28 melanoma = test system: SK-MEL-28 melanoma
MALME-3M melanoma = test system: MALME-3M melanoma
DU-145 prostate = test system: DU-145 prostate
ACHN renal = test system: ACHN renal
HT29 colon = test system: HT29 colon
M14 melanoma = test system: M14 melanoma
EKVX NSCLC = test system: EKVX NSCLC
SW-620 colon = test system: SW-620 colon
SR leukemia = test system: SR leukemia
A498 renal = test system: A498 renal

O=C1/C(=C/c2ccc(O)c(O)c2)COc2ccc(-c3ccccc3)cc21
GI50 (RPMI-8226 leukemia): 187 nM
TGI (RPMI-8226 leukemia): 588 nM
GI50 (KM12 colon): 1420 nM
TGI (KM12 colon): 3.39 µM
GI50 (HS 578T breast): 3.21 µM
TGI (HS 578T breast): 13.9 µM
GI50 (SF-268 CNS): 2110 nM
TGI (SF-268 CNS): 7.33 µM
GI50 (OVCAR-8 ovarian): 3.29 µM
TGI (OVCAR-8 ovarian): 22 µM
GI50 (SK-OV-3 ovarian): 4.77 µM
TGI (SK-OV-3 ovarian): 37.7 µM
GI50 (SN12C renal): 2470 nM
TGI (SN12C renal): 10.6 µM
GI50 (NCI-H226 lung): 4.15 µM
TGI (NCI-H226 lung): 32.8 µM
GI50 (SNB-19 CNS): 3.51 µM
TGI (SNB-19 CNS): 14.7 µM
GI50 (MDA-MB-231 breast): 2260 nM
TGI (MDA-MB-231 breast): 8.47 µM
GI50 (HCT-15 colon): 697 nM
TGI (HCT-15 colon): 2240 nM
GI50 (U251 CNS): 1450 nM
TGI (U251 CNS): 3.38 µM
GI50 (PC-3 prostate): 1800 nM
TGI (PC-3 prostate): 10.7 µM
GI50 (786-0 renal): 1940 nM
TGI (786-0 renal): 5.55 µM
GI50 (IGROV1 ovarian): 1390 nM
TGI (IGROV1 ovarian): 6.41 µM
GI50 (HOP-62 NSCLC): 3.55 µM
TGI (HOP-62 NSCLC): 11.6 µM
GI50 (UACC-257 melanoma): 3.89 µM
TGI (UACC-257 melanoma): 16.9 µM
GI50 (OVCAR-5 ovarian): 3.71 µM
TGI (OVCAR-5 ovarian): 16.1 µM
GI50 (CCRF-CEM leukemia): 329 nM
GI50 (COLO 205 colon): 732 nM
TGI (COLO 205 colon): 2150 nM
GI50 (SK-MEL-28 melanoma): 1600 nM
TGI (SK-MEL-28 melanoma): 3.07 µM
GI50 (MALME-3M melanoma): 1700 nM
TGI (MALME-3M melanoma): 5.55 µM
GI50 (DU-145 prostate): 1770 nM
TGI (DU-145 prostate): 4.48 µM
GI50 (ACHN renal): 1530 nM
TGI (ACHN renal): 3.22 µM
GI50 (HT29 colon): 1500 nM
TGI (HT29 colon): 3.16 µM
GI50 (M14 melanoma): 2020 nM
TGI (M14 melanoma): 5.28 µM
GI50 (EKVX NSCLC): 5.39 µM
TGI (EKVX NSCLC): 18.1 µM
GI50 (SW-620 colon): 875 nM
TGI (SW-620 colon): 2460 nM
GI50 (SR leukemia): 616 nM
GI50 (A498 renal): 2200 nM
